Results on 19 molecules are retold here after ChEMBL document CHEMBL4665686, “Dehydrohispanolone Derivatives Attenuate the Inflammatory Response through the Modulation of Inflammasome Activation” (J Nat Prod, 2020).

A word on the inhibition: it is how much of the control response was suppressed. One may read the IC50 as the concentration at which inhibition is half-maximal.

Activity calls are given as the source filed them. The rule behind the calls is not given here. Bounds are passed on as bounds.

For series [1], the target named is NACHT, LRR and PYD domains-containing protein 3 (Mus musculus) (UniProt Q8R4B8). Description: Inhibition of NLRP3 in mouse J774A.1 cells assessed as inhibition of LPS and nigerecin-induced IL-1beta production at 20 uM pre-stimulated with LPS for 5 hrs followed by compound treatment for 30 mins and then nigericin addition for 45 mins by ELISA. The format is cell-based. The note with it: J774.A1, time 75.0 min. For orientation: In an ELISA, binding on a coated surface is turned into a signal by an enzyme label.
NACHT, LRR and PYD domains-containing protein 3 (Mus musculus), sequence (Q8R4B8 whole entry, the tested form may be a part): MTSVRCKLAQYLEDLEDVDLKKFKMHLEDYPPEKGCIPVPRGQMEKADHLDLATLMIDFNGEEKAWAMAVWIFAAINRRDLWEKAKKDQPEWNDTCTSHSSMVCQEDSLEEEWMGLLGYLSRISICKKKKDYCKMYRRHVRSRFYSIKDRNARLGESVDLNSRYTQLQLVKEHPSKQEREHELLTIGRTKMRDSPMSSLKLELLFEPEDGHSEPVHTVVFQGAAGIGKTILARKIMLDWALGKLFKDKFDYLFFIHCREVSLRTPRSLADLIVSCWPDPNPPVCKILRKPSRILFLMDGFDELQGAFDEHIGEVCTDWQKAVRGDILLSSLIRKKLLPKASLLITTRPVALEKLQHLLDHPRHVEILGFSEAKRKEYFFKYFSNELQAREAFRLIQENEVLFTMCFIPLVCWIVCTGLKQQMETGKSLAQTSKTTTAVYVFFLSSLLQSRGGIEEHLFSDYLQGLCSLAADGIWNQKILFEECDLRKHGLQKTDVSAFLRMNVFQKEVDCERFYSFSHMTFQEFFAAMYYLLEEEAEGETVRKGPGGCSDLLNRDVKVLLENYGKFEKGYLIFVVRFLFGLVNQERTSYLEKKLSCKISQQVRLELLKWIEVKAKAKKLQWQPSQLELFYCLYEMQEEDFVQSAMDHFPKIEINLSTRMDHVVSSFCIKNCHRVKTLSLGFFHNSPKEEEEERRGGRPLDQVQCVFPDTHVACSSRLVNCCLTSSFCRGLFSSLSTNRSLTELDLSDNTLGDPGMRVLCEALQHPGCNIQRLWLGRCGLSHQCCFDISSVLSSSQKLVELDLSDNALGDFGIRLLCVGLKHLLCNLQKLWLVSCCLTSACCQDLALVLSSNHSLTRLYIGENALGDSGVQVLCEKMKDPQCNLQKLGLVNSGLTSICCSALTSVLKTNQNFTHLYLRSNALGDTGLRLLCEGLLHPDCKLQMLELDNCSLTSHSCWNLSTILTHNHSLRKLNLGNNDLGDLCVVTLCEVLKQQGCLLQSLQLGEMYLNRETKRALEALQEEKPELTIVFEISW

For series [2], the system named is J774.A1. Description: Cytotoxicity against mouse J774.A1 cells assessed as cell viability at 10 to 20 uM after 24 hrs by MTT assay. It is filed as cell-based. The note with it: j774.a1, 24 h, dose 10-20 µM. For orientation: Tetrazolium dyes change colour on reduction, which living cells bring about.
For series [3], the target named is NACHT, LRR and PYD domains-containing protein 3 (Mus musculus) (UniProt Q8R4B8). Description: Inhibition of NLRP3 in mouse J774A.1 cells assessed as inhibition of LPS-induced NO production at 20 uM measured after 24 hrs by Griess reagent. The format is cell-based. The following applies: J774.A1.
The target is the same in series [4]. The note with it: J774.A1, dose 300.0 nM, time 45.0 min.
Series [5] addresses NACHT, LRR and PYD domains-containing protein 3 (Mus musculus, UniProt Q8R4B8). Description: Inhibition of NLRP3 in mouse J774A.1 cells assessed as inhibition of LPS and nigerecin-induced IL-1beta production pre-stimulated with LPS for 5 hrs followed by compound treatment for 30 mins and then nigericin addition for 45 mins by ELISA. The format is cell-based, J774.A1.
The target of series [6] is NACHT, LRR and PYD domains-containing protein 3 (Mus musculus) (UniProt Q8R4B8). Briefly: Inhibition of NLRP3 in mouse J774A.1 cells assessed as inhibition of LPS and ATP-induced IL-1beta production at 20 uM pre-stimulated with LPS for 5 hrs followed by compound treatment for 30 mins and then ATP addition for 45 mins by ELISA. It is filed as cell-based. The following applies: J774.A1, time 75.0 min.

Series [7] has the same target. Description: Inhibition of NLRP3 in mouse J774A.1 cells assessed as inhibition of LPS and nigericin-induced cleaved IL-1beta production at 20 uM pre-stimulated with LPS for 5 hrs before compound addition with ATP for 45 mins by Western blot analysis. The following applies: J774.A1. It is filed as cell-based.
The target is the same in series [8]. Briefly: Inhibition of NLRP3 in mouse J774A.1 cells assessed as inhibition of LPS and MSU-induced IL-1beta production at 20 uM pre-stimulated with LPS for 5 hrs followed by compound treatment for 30 mins and then MSU addition for 24 hrs by ELISA. The format is cell-based. The following applies: J774.A1, time 24.5 hrs.

NACHT, LRR and PYD domains-containing protein 3, sequence (Q8R4B8 whole entry, the tested form may be a part): as above

Take `CC1=C(CCC2CCOC2)[C@@]2(C)CCCC(C)(C)[C@@H]2CC1=O` (some centres undefined): in series [1], the inhibition result was “Active”. The Activity result in series [2] is given as “Non-Toxic”. In series [3], the inhibition is above 50%.
For the molecule `CC(C)(O)c1coc(S(=O)(=O)NC(=O)Nc2c3c(cc4c2CCC4)CCC3)c1`, the inhibition result in series [4] was “Active”.
As for `CC1=C(CCc2ccoc2)[C@@]2(C)CCCC(C)(C)[C@@H]2CC1N` (some centres undefined), the Activity entry in series [2] is “Toxic”.
The same measure, in the same setting: next, `CC1=C(CCc2ccoc2)[C@@]2(C)CCCC(C)(C)[C@@H]2C/C1=N/OC(=O)c1ccc(C(=O)O)cc1`: “Toxic”.
As for `CCC1=C(Cc2ccoc2)C(=O)[C@@]2(C)CCCC(C)(C)[C@@H]2C1`, in series [1], the inhibition entry was “Active”. Further, the Activity entry in series [2] is listed as “Non-Toxic”. Besides, the inhibition in series [3] is above 50%.
With `CC1=C(CCc2ccoc2)[C@@]2(C)CCCC(C)(C)[C@@H]2C[C@@H]1O`, the Activity entry in series [2] is on record as “Toxic”.
Regarding `CCCCCCCCCCCC(=O)O/N=C1/C[C@H]2C(C)(C)CCC[C@]2(C)C(CCc2ccoc2)=C1C`, in series [5], the IC50 amounted to 18.7 µM. For the same molecule, the inhibition entry in series [6], in series [1], in series [7] and in series [8] was “Active” throughout. The Activity result in series [2] is listed as “Non-Toxic”.
Take `CC1=C(CCc2ccoc2)[C@@]2(C)CCCC(C)(C)[C@@H]2C/C1=N/OC(=O)c1cccc(C(=O)O/N=C2/C[C@H]3C(C)(C)CCC[C@]3(C)C(CCc3ccoc3)=C2C)n1`: the Activity entry in series [2] is given as “Non-Toxic”.
Turning to `CC1=C(CCc2ccoc2)[C@@]2(C)CCCC(C)(C)[C@@H]2C/C1=N/OC(=O)c1ccc(C(=O)O/N=C2/C[C@H]3C(C)(C)CCC[C@]3(C)C(CCc3ccoc3)=C2C)cc1`, the IC50 in series [5] was determined as 13.8 µM. The inhibition entry in series [6], in series [1], in series [7] and in series [8] was “Active” throughout. The Activity entry in series [2] is “Non-Toxic”.
Regarding `CC(=O)O/N=C1/C[C@H]2C(C)(C)CCC[C@]2(C)C(CCc2ccoc2)=C1C`, the Activity result in series [2] is “Non-Toxic”.
Still for that read-out and setting: as for `CC1=C(CCc2ccoc2)[C@@]2(C)CCCC(C)(C)[C@@H]2C/C1=N/O`, the entry is “Non-Toxic”.
Turning to `CC1=C(CCc2ccoc2)[C@@]2(C)CCCC(C)(C)[C@@H]2CC(=O)N1`, the Activity entry in series [2] is given as “Non-Toxic”.
Still for that read-out and setting: next, `CC1=C(CCc2ccoc2)[C@@]2(C)CCCC(C)(C)[C@@H]2CC1=O`: “Toxic”; `CO[C@H]1C[C@H]2C(C)(C)CCC[C@]2(C)C(CCc2ccoc2)=C1C`: “Non-Toxic”.
Consider `CC1=C(CCc2ccoc2)[C@@]2(C)CCCC(C)(C)[C@@H]2C/C1=N/OC(=O)c1ccc(Br)cc1`, for which the Activity entry in series [2] is on record as “Non-Toxic”. Besides, the inhibition in series [3] was above 50%.
In the case of `CC1=C(CCc2ccoc2)[C@@]2(C)CCCC(C)(C)[C@@H]2C/C1=N/OS(=O)(=O)c1ccc(C)cc1`, the Activity result in series [2] was “Non-Toxic”.
Still for that read-out and setting: next, `CC1=C(CCc2ccoc2)[C@@]2(C)CCCC(C)(C)[C@@H]2C/C1=N/OC(=O)CCCCC(=O)O/N=C1/C[C@H]2C(C)(C)CCC[C@]2(C)C(CCc2ccoc2)=C1C`: “Non-Toxic”.
Consider `CC1=C(CCc2ccoc2)[C@@]2(C)CCCC(C)(C)[C@@H]2C/C1=N/OC(=O)N(C)C`, for which the Activity entry in series [2] is on record as “Non-Toxic”.
Same read-out and setting: as for `CO/N=C1/C[C@H]2C(C)(C)CCC[C@]2(C)C(CCc2ccoc2)=C1C`, the entry is “Non-Toxic”.
